Assay results published in paper PMC12420824, “Discovery of a selective alpha-kinase 1 inhibitor for the rare genetic disease ROSAH syndrome” (Nature Communications, 2025).

Assays:
Test in all cases: HotSpot kinase assay
Conditions in all cases: read-out: % Enzyme Activity (relative to DMSO control), 10 uM
SNRK = SNRK (Homo sapiens, UniProt Q9NRH2)
Excerpt: (§1) Additionally, a 10-dose dilution series of staurosporine and other enzyme-appropriate compounds were included as positive control inhibitors.

BRSK1 = BRSK1 (Homo sapiens, UniProt Q8TDC3)
Excerpt: as §1

GSK3b = GSK3b (Homo sapiens, UniProt P49841)
Excerpt: as §1

CDK17/cyclin Y (PCTK2) = CDK17/cyclin Y (PCTK2) (Homo sapiens, UniProt Q00537)
Excerpt: as §1

STK38/NDR1 = STK38/NDR1 (Homo sapiens, UniProt Q15208)
Excerpt: as §1

PAK4 = PAK4 (Homo sapiens, UniProt O96013)
Excerpt: as §1

AMPK (A1/B2/G2) = AMPK (A1/B2/G2) (Homo sapiens, UniProt Q13131)
Excerpt: as §1

ERK7/MAPK15 = ERK7/MAPK15 (Homo sapiens, UniProt Q8TD08)
Excerpt: as §1

TEC = TEC (Homo sapiens, UniProt P42680)
Excerpt: as §1

PIM3 = PIM3 (Homo sapiens, UniProt Q86V86)
Excerpt: as §1

DMPK = DMPK (Homo sapiens, UniProt Q09013)
Excerpt: as §1

CAMK4 = CAMK4 (Homo sapiens, UniProt Q16566)
Excerpt: as §1

HIPK1 = HIPK1 (Homo sapiens, UniProt Q86Z02)
Excerpt: as §1

SYK = SYK (Homo sapiens, UniProt P43405)
Excerpt: as §1

AMPK(A1/B1/G1) = AMPK(A1/B1/G1) (Homo sapiens, UniProt Q13131)
Excerpt: as §1

EGFR = EGFR (Homo sapiens, UniProt P00533)
Excerpt: as §1

ULK1 = ULK1 (Homo sapiens, UniProt O75385)
Excerpt: as §1

AMPK(A2/B1/G1) = AMPK(A2/B1/G1) (Homo sapiens, UniProt P54646)
Excerpt: as §1

NLK = NLK (Homo sapiens, UniProt Q9UBE8)
Excerpt: as §1

CDK7/cyclin H = CDK7/cyclin H (Homo sapiens, UniProt P50613)
Excerpt: as §1

PKCb2 = PKCb2 (Homo sapiens, UniProt P05771)
Excerpt: as §1

PHKg1 = PHKg1 (Homo sapiens, UniProt Q16816)
Excerpt: as §1

GRK7 = GRK7 (Homo sapiens, UniProt Q8WTQ7)
Excerpt: as §1

PKCIOTA = PKCIOTA (Homo sapiens, UniProt P41743)
Excerpt: as §1

ERN1/IRE1 = ERN1/IRE1 (Homo sapiens, UniProt O75460)
Excerpt: as §1

MEK5 = MEK5 (Homo sapiens, UniProt Q13163)
Excerpt: as §1

MSK1/RPS6KA5 = MSK1/RPS6KA5 (Homo sapiens, UniProt O75582)
Excerpt: as §1

PYK2 = PYK2 (Homo sapiens, UniProt Q14289)
Excerpt: as §1

IRAK1 = IRAK1 (Homo sapiens, UniProt P51617)
Excerpt: as §1

c-MER = c-MER (Homo sapiens, UniProt Q12866)
Excerpt: as §1

FMS = FMS (Homo sapiens, UniProt P07333)
Excerpt: as §1

mTOR/FRAP1 = mTOR/FRAP1 (Homo sapiens, UniProt P42345)
Excerpt: as §1

CDK4/cyclin D3 = CDK4/cyclin D3 (Homo sapiens, UniProt P11802)
Excerpt: as §1

FGR = FGR (Homo sapiens, UniProt P09769)
Excerpt: as §1

SGK3/SGKL = SGK3/SGKL (Homo sapiens, UniProt Q96BR1)
Excerpt: as §1

STK25/YSK1 = STK25/YSK1 (Homo sapiens, UniProt O00506)
Excerpt: as §1

ARK5/NUAK1 = ARK5/NUAK1 (Homo sapiens, UniProt O60285)
Excerpt: as §1

NEK7 = NEK7 (Homo sapiens, UniProt Q8TDX7)
Excerpt: as §1

NEK1 = NEK1 (Homo sapiens, UniProt Q96PY6)
Chain of NEK1 (Q96PY6 whole entry): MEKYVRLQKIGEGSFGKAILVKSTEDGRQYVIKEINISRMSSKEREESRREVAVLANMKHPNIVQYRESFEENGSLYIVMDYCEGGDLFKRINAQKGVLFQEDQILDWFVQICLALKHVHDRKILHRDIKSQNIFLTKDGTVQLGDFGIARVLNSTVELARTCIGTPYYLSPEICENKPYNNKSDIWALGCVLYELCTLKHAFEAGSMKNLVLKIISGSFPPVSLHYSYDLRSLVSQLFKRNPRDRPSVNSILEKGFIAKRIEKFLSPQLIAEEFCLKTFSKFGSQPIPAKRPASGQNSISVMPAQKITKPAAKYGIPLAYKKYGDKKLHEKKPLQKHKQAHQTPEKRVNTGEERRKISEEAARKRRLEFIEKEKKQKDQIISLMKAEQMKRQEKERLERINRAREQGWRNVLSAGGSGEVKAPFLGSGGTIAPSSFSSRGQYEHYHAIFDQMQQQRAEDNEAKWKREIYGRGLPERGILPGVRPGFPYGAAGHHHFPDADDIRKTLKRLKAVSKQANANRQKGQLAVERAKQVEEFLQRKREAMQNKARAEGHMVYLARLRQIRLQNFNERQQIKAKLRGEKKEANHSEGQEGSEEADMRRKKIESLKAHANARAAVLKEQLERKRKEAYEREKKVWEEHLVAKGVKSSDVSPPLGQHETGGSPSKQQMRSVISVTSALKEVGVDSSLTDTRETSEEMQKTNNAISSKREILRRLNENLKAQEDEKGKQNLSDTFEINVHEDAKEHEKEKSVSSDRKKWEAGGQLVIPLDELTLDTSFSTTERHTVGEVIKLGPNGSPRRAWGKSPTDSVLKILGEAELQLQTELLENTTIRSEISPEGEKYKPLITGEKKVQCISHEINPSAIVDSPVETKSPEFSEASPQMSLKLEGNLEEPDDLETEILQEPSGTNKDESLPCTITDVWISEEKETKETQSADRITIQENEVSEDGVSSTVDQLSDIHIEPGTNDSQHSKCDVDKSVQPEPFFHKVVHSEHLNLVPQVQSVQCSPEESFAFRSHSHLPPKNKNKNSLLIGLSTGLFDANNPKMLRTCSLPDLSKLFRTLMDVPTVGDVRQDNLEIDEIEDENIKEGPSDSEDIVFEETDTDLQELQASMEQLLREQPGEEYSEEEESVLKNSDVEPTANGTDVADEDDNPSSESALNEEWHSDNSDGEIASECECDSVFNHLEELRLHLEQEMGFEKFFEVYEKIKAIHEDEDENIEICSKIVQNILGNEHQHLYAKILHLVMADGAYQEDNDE
Excerpt: as §1

Chain of NEK7 (Q8TDX7 whole entry): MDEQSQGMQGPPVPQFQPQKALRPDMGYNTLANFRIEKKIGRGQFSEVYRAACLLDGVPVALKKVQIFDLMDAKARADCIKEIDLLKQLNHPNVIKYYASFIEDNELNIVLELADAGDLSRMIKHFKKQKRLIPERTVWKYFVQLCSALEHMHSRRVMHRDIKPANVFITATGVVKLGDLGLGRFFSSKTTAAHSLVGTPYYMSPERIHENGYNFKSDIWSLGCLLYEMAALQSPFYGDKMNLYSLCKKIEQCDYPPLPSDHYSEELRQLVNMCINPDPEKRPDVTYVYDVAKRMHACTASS
Chain of ULK1 (O75385 whole entry): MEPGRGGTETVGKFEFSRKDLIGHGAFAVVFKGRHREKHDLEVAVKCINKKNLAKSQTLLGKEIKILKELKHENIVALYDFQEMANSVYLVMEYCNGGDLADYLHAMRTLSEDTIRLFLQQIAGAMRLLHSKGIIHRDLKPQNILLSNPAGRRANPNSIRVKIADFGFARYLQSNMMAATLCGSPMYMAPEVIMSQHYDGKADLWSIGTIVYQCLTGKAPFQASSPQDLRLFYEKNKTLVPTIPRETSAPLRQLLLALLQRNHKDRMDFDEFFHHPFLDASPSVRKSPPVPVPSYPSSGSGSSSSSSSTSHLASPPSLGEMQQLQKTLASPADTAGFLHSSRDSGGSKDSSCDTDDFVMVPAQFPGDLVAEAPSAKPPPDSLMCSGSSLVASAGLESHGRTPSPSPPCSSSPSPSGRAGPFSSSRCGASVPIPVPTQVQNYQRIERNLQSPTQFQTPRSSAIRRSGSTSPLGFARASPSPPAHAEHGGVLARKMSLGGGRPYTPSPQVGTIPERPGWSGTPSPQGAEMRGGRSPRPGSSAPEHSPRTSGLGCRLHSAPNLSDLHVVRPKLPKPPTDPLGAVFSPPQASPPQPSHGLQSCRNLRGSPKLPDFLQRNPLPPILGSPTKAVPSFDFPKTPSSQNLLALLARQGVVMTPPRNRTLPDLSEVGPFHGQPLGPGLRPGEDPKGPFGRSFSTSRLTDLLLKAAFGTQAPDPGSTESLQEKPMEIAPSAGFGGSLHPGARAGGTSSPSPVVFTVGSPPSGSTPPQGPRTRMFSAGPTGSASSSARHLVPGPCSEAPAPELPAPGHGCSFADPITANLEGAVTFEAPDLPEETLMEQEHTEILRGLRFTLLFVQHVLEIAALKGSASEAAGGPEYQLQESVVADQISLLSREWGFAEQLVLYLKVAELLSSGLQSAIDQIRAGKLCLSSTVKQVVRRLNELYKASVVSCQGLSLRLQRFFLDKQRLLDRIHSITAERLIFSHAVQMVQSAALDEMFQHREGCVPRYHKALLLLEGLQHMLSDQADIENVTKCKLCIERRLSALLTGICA
Chain of DMPK (Q09013 whole entry): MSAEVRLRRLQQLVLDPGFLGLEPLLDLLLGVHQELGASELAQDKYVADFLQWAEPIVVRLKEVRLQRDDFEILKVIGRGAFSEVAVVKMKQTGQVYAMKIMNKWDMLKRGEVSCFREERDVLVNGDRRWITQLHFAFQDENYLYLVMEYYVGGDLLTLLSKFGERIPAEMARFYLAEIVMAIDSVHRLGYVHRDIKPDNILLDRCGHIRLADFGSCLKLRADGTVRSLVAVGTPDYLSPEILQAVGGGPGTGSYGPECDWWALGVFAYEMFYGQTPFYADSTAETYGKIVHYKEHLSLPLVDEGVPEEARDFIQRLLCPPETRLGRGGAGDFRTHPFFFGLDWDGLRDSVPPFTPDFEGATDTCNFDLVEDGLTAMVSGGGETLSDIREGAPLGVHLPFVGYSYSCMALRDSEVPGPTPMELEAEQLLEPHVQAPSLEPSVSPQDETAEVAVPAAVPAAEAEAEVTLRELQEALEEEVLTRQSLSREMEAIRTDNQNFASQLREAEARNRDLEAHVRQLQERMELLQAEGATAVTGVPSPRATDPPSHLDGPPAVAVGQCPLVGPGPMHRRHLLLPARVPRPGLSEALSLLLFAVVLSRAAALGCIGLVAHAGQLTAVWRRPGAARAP
Chain of BRSK1 (Q8TDC3 whole entry): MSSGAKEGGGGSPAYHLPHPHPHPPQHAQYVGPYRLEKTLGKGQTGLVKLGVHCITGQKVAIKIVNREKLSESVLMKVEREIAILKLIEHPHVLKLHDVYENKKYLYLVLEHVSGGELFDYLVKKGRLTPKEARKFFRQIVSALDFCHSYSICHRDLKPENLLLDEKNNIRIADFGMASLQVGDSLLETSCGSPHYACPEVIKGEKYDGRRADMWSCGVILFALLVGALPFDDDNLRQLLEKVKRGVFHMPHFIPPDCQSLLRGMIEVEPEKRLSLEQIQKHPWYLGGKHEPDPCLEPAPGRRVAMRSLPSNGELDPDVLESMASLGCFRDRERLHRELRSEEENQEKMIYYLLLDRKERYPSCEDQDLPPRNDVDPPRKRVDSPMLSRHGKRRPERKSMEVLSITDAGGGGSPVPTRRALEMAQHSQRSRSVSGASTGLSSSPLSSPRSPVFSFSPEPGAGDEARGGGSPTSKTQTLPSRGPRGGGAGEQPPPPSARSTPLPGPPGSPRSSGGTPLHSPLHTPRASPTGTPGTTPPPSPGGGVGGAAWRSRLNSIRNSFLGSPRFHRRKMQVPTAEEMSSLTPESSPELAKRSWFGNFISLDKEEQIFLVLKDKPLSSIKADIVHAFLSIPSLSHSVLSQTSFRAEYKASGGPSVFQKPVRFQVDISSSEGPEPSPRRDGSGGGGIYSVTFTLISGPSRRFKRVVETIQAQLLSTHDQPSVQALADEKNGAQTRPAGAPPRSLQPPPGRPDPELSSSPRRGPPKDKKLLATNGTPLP
Chain of MEK5 (Q13163 whole entry): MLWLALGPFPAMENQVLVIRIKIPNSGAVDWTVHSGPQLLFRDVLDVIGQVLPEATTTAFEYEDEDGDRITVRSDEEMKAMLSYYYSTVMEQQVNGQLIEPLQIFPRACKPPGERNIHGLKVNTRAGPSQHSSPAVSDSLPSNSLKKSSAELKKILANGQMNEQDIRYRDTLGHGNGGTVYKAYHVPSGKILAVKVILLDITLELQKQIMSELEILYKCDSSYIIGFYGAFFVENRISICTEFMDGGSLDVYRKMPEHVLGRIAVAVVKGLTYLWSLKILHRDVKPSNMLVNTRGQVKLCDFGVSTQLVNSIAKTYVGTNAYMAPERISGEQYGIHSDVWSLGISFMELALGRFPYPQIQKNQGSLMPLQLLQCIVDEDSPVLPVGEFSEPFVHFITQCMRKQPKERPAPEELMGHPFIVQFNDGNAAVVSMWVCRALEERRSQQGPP
Chain of CAMK4 (Q16566 whole entry): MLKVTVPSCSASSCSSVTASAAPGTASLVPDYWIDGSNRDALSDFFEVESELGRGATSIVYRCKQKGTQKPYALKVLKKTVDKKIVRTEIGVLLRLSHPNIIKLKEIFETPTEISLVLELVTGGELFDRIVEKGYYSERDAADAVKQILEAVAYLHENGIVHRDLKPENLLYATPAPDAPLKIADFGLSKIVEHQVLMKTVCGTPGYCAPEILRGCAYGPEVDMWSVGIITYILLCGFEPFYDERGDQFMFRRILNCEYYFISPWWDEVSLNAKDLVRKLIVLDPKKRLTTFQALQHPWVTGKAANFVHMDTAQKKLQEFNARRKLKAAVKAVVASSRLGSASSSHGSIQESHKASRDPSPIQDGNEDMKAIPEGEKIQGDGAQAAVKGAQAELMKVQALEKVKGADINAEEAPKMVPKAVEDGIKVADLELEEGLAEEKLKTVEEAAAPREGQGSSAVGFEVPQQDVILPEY

Molecule `C#C[C@@](C)(c1ccc(Cl)cc1)c1csc(NC(=O)c2c(F)cc(N3CCNCC3)cc2F)n1` (stereo in doubt) [DF-003] has a remaining activity at 10 µM (SNRK) of 80.5%, a remaining activity at 10 µM (BRSK1) of 116% and a remaining activity at 10 µM (GSK3b) of 93.3%. For the same molecule, the remaining activity at 10 µM (CDK17/cyclin Y (PCTK2)) was 82.4%, the remaining activity at 10 µM (STK38/NDR1) was 90% and the remaining activity at 10 µM (PAK4) was 102%. For the same molecule, the remaining activity at 10 µM (AMPK (A1/B2/G2)) was 113%, the remaining activity at 10 µM (ERK7/MAPK15) was 83.5% and the remaining activity at 10 µM (TEC) was 104%. The remaining activity at 10 µM (PIM3) was 95.5%, the remaining activity at 10 µM (DMPK) was 94.6% and the remaining activity at 10 µM (CAMK4) was 34.5%. It also gave a remaining activity at 10 µM (HIPK1) of 104%, a remaining activity at 10 µM (SYK) of 78.8% and a remaining activity at 10 µM (AMPK(A1/B1/G1)) of 119%. For the same molecule, the remaining activity at 10 µM (EGFR) was 93.7%, the remaining activity at 10 µM (ULK1) was 56.8% and the remaining activity at 10 µM (AMPK(A2/B1/G1)) was 83.4%. The remaining activity at 10 µM (NLK) was 99.5%, the remaining activity at 10 µM (CDK7/cyclin H) was 102% and the remaining activity at 10 µM (PKCb2) was 85.2%. It also gave a remaining activity at 10 µM (PHKg1) of 92.1%, a remaining activity at 10 µM (GRK7) of 114% and a remaining activity at 10 µM (PKCIOTA) of 77.5%. It also gave a remaining activity at 10 µM (ERN1/IRE1) of 93.8%, a remaining activity at 10 µM (MEK5) of 109% and a remaining activity at 10 µM (MSK1/RPS6KA5) of 57.8%. The remaining activity at 10 µM (PYK2) was 129%, the remaining activity at 10 µM (IRAK1) was 88% and the remaining activity at 10 µM (c-MER) was 89.5%. For the same molecule, the remaining activity at 10 µM (FMS) was 75.7%, the remaining activity at 10 µM (mTOR/FRAP1) was 92.1% and the remaining activity at 10 µM (CDK4/cyclin D3) was 91.1%. For the same molecule, the remaining activity at 10 µM (FGR) was 97.8%, the remaining activity at 10 µM (SGK3/SGKL) was 84.3% and the remaining activity at 10 µM (STK25/YSK1) was 82.9%. The remaining activity at 10 µM (ARK5/NUAK1) was 93.2%, the remaining activity at 10 µM (NEK7) was 118% and the remaining activity at 10 µM (NEK1) was 106%.
